For 25 compounds, IC50 results are on record in patent US10364238B2, “N-((het) arylmethyl)-heteroaryl-carboxamides compounds as plasma kallikrein inhibitors” (KALVISTA PHARMACEUTICALS LIMITED, priority 2014, dated 2019).

One experiment concerns the target Human plasma kallikrein (Homo sapiens (Human), UniProt P03952). Put plainly: Determination of the IC50 for plasma kallikrein. Particulars: 25° C., fluorogenic substrate H-DPro-Phe-Arg-AFC; read-out: IC50 (human PKaI). Format: biochemical. As to the method: Determination of the IC50 for Plasma Kallikrein
Human plasma kallikrein (Protogen) was incubated at 25° C. with the fluorogenic substrate H-DPro-Phe-Arg-AFC and various concentrations of the test compound. Residual enzyme activity (initial rate of reaction) was determined by measuring the change in […] at 410 nm and the IC50 value for the test compound was determined.

A further experiment deals with Human KLK1 (Homo sapiens (Human), UniProt P06870). Put plainly: Determination of the IC50 for KLK1. As to conditions: 25° C., fluorogenic substrate H-DVal-Leu-Arg-AFC. Format: biochemical. The procedure: Determination of the IC50 for KLK1
Human KLK1 (Callbiochem) was incubated at 25° C. with the fluorogenic substrate H-DVal-Leu-Arg-AFC and various concentrations of the test compound. Residual enzyme activity (initial rate of reaction) was determined by measuring the change in […] at 410 nm and the IC50 value for the test compound was determined.

Chain of Human plasma kallikrein (P03952 391-638): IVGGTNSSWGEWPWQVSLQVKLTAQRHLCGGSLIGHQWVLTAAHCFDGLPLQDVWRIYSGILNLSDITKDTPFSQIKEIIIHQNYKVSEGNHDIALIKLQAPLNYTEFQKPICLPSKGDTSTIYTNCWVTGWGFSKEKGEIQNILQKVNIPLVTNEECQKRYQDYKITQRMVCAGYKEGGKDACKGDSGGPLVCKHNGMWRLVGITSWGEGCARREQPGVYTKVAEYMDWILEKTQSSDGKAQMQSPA
Chain of Human plasma kallikrein (P03952 20-390 partner): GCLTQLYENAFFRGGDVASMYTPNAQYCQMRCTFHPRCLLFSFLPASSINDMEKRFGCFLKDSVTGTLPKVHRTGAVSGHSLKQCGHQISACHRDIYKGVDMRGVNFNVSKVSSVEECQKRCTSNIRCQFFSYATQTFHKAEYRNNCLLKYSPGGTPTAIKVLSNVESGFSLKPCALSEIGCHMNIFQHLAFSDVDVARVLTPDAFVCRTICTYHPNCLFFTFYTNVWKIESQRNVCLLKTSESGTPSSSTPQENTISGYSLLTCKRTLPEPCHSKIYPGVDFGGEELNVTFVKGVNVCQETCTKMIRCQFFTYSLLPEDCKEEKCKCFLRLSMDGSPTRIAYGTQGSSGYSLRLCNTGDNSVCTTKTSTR
Chain of Human KLK1 (P06870 25-262): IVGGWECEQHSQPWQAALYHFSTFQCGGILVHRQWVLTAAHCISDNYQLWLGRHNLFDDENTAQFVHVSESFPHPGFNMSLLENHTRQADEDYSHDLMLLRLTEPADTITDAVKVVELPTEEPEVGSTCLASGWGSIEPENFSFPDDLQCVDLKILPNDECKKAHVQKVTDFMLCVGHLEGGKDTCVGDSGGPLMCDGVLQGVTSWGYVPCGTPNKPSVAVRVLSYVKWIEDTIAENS

As to `Cc1cnn(Cc2ccc(Cn3cc(C(=O)NCc4cc(Cl)ccn4)c(C(F)(F)F)n3)cc2)c1` [Example 30, N-[(4-chloropyridin-2-yl)methyl]-1-({4-[(4-methylpyrazol-1-yl)methyl]phenyl}methyl)-3-(trifluoromethyl)pyrazole-4-carboxamide], the half-inhibitory concentration (IC50) – broadly, the concentration at which inhibition is half-maximal – is 915 nM at Human plasma kallikrein and > 10 µM on Human KLK1.

As for `Cc1cnn(Cc2ccc(Cn3cc(C(=O)NCc4cc(Cl)ccc4C(F)(F)F)c(C(F)(F)F)n3)cc2)c1` [Example 23, N-{[5-chloro-2-(trifluoromethyl)phenyl]methyl}-1-({4-[(4-methylpyrazol-1-yl)methyl]phenyl}methyl)-3-(trifluoromethyl)pyrazole-4-carboxamide], the IC50 at Human plasma kallikrein was 1060 nM; on Human KLK1 it was > 10 µM.

Consider `Cc1cnn(Cc2ccc(Cn3cc(C(=O)NCc4c(F)cccc4C(F)(F)F)c(C(F)(F)F)n3)cc2)c1` [Example 15, N-{[2-fluoro-6-(trifluoromethyl)phenyl]methyl}-1-({4-[(4-methylpyrazol-1-yl)methyl]phenyl}methyl)-3-(trifluoromethyl)pyrazole-4-carboxamide], for which the IC50 is 219 nM at Human plasma kallikrein and > 10 µM against Human KLK1.

Consider `COCc1nn(Cc2ccc(Cn3ccccc3=O)cc2)cc1C(=O)NCc1cc(OC)ccc1C(N)=O` [Example 86, N-[(2-carbamoyl-5-methoxyphenyl)methyl]-3-(methoxymethyl)-1-({4-[(2-oxopyridin-1-yl)methyl]phenyl}methyl)pyrazole-4-carboxamide], for which the results for the IC50 at Human plasma kallikrein and against Human KLK1 were 8.7 nM and > 40 µM, respectively.

On to `Cc1ccc(CNC(=O)c2cn(Cc3ccc(Cn4cc(C)cn4)cc3)nc2C(F)(F)F)c(F)c1` [Example 28, N-[(2-fluoro-4-methylphenyl)methyl]-1-({4-[(4-methylpyrazol-1-yl)methyl]phenyl}methyl)-3-(trifluoromethyl)pyrazole-4-carboxamide], for which the IC50 on Human plasma kallikrein was 280 nM; on Human KLK1, > 10 µM.

Regarding `COc1cccc(CNC(=O)c2cn(Cc3ccc(Cn4cc(C)cn4)cc3)nc2C(F)(F)F)c1` [Example 5, N-[(3-methoxyphenyl)methyl]-1-({4-[(4-methylpyrazol-1-yl)methyl]phenyl}methyl)-3-(trifluoromethyl)pyrazole-4-carboxamide], the IC50 on Human plasma kallikrein was 364 nM; against Human KLK1, > 10 µM.

`Cc1cnn(Cc2ccc(Cn3cc(C(=O)NCc4c(Cl)cccc4Cl)c(C(F)(F)F)n3)cc2)c1` [Example 22, N-[(2,6-dichlorophenyl)methyl]-1-({4-[(4-methylpyrazol-1-yl)methyl]phenyl}methyl)-3-(trifluoromethyl)pyrazole-4-carboxamide]: the 50% inhibitory concentration (IC50) on Human plasma kallikrein was 1350 nM; on Human KLK1, > 10 µM.

For the compound `Cc1cnn(Cc2ccc(Cn3cc(C(=O)NCc4cccc(F)c4C)c(C(F)(F)F)n3)cc2)c1` [Example 27, N-[(3-fluoro-2-methylphenyl)methyl]-1-({4-[(4-methylpyrazol-1-yl)methyl]phenyl}methyl)-3-(trifluoromethyl)pyrazole-4-carboxamide], the half-maximal inhibitory concentration (IC50) on Human plasma kallikrein was > 10000 nM; at Human KLK1, > 10 µM.

For `COCc1nn(Cc2ccc(Cn3cc(C)cn3)cc2)cc1C(=O)NCc1csc2ccc(Cl)cc12` [Example 47, N-[(5-chloro-1-benzothiophen-3-yl)methyl]-3-(methoxymethyl)-1-({4-[(4-methylpyrazol-1-yl)methyl]phenyl}methyl)pyrazole-4-carboxamide], the 50% inhibitory concentration (IC50) on Human plasma kallikrein was 753 nM; against Human KLK1, > 10 µM.

Turning to `COCc1nn(Cc2ccc(Cn3ccccc3=O)cc2)cc1C(=O)NCc1csc2ccc(Cl)cc12` [Example 45, N-[(5-chloro-1-benzothiophen-3-yl)methyl]-3-(methoxymethyl)-1-({4-[(2-oxopyridin-1-yl)methyl]phenyl}methyl)pyrazole-4-carboxamide], the IC50 on Human plasma kallikrein is 144 nM; against Human KLK1, > 10 µM.

Consider `NC(=O)c1ccc(CNC(=O)c2cn(Cc3ccc(Cn4ccccc4=O)cc3)nc2C2CC2)cc1` [Example 50, N-[(4-carbamoylphenyl)methyl]-3-cyclopropyl-1-({4-[(2-oxopyridin-1-yl)methyl]phenyl}methyl)pyrazole-4-carboxamide], for which the half-maximal inhibitory concentration (IC50) at Human plasma kallikrein is 1800 nM; on Human KLK1 it was > 10 µM.

With `COc1ccc(F)c(CNC(=O)c2cn(Cc3ccc(Cn4cc(C)cn4)cc3)nc2C(F)(F)F)c1` [Example 9, N-[(2-fluoro-5-methoxyphenyl)methyl]-1-({4-[(4-methylpyrazol-1-yl)methyl]phenyl}methyl)-3-(trifluoromethyl)pyrazole-4-carboxamide], the IC50 is 239 nM on Human plasma kallikrein and > 10 µM against Human KLK1.

In the case of `Cc1cnn(Cc2ccc(Cn3cc(C(=O)NCc4ccc(Cl)cc4F)c(C(F)(F)F)n3)cc2)c1` [Example 17, N-[(4-chloro-2-fluorophenyl)methyl]-1-({4-[(4-methylpyrazol-1-yl)methyl]phenyl}methyl)-3-(trifluoromethyl)pyrazole-4-carboxamide], the IC50 is 865 nM at Human plasma kallikrein and > 10 µM on Human KLK1.

On to `Cc1cnn(Cc2ccc(Cn3cc(C(=O)NCc4c(C(F)(F)F)ccc(Cl)c4F)c(C(F)(F)F)n3)cc2)c1` [Example 21, N-{[3-chloro-2-fluoro-6-(trifluoromethyl)phenyl]methyl}-1-({4-[(4-methylpyrazol-1-yl)methyl]phenyl}methyl)-3-(trifluoromethyl)pyrazole-4-carboxamide], for which the figures for the IC50 on Human plasma kallikrein and against Human KLK1 were 257 nM and > 10 µM, respectively.

Take `COc1ccc(CNC(=O)c2cn(Cc3ccc(Cn4cc(C)cn4)cc3)nc2C(F)(F)F)c(OC)c1` [Example 10, N-[(2,4-dimethoxyphenyl)methyl]-1-({4-[(4-methylpyrazol-1-yl)methyl]phenyl}methyl)-3-(trifluoromethyl)pyrazole-4-carboxamide]: the IC50 was 1270 nM at Human plasma kallikrein and > 10 µM on Human KLK1.

Turning to `Cc1cnn(Cc2ccc(Cn3cc(C(=O)NCc4cccc(OC(F)(F)F)c4)c(C(F)(F)F)n3)cc2)c1` [Example 7, 1-({4-[(4-methylpyrazol-1-yl)methyl]phenyl}methyl)-N-{[3-(trifluoromethoxy)phenyl]methyl}-3-(trifluoromethyl)pyrazole-4-carboxamide], the half-inhibitory concentration (IC50) on Human plasma kallikrein was > 10000 nM; against Human KLK1, > 10 µM.

On to `COc1cccc(CNC(=O)c2cn(Cc3ccc(Cn4cc(C)cn4)cc3)nc2C(F)(F)F)c1F` [Example 4, N-[(2-fluoro-3-methoxyphenyl)methyl]-1-({4-[(4-methylpyrazol-1-yl)methyl]phenyl}methyl)-3-(trifluoromethyl)pyrazole-4-carboxamide], for which the IC50 was 136 nM on Human plasma kallikrein and > 10 µM at Human KLK1.

With `Cc1cnn(Cc2ccc(Cn3cc(C(=O)NCc4c(F)ccc(Cl)c4F)c(C(F)(F)F)n3)cc2)c1` [Example 18, N-[(3-chloro-2,6-difluorophenyl)methyl]-1-({4-[(4-methylpyrazol-1-yl)methyl]phenyl}methyl)-3-(trifluoromethyl)pyrazole-4-carboxamide], the values for the 50% inhibitory concentration (IC50) on Human plasma kallikrein and against Human KLK1 were 373 nM and > 10 µM, respectively.

Turning to `COCc1nn(Cc2ccc(Cn3ccccc3=O)cc2)cc1C(=O)NCc1ccc(C)nc1` [Example 32, 3-(methoxymethyl)-N-[(6-methylpyridin-3-yl)methyl]-1-({4-[(2-oxopyridin-1-yl)methyl]phenyl}methyl)pyrazole-4-carboxamide], the values for the half-inhibitory concentration (IC50) at Human plasma kallikrein and at Human KLK1 were 7870 nM and > 10 µM, respectively.

For `Cc1cc(C)c(CNC(=O)c2cn(Cc3ccc(Cn4cc(C)cn4)cc3)nc2C(F)(F)F)c(C)c1` [Example 26, 1-({4-[(4-methylpyrazol-1-yl)methyl]phenyl}methyl)-3-(trifluoromethyl)-N-[(2,4,6-trimethylphenyl)methyl]pyrazole-4-carboxamide], the IC50 at Human plasma kallikrein was 1340 nM; against Human KLK1, > 10 µM.

As for `Cc1cnn(Cc2ccc(Cn3cc(C(=O)NCc4c(F)cccc4Cl)c(C(F)(F)F)n3)cc2)c1` [Example 14, N-[(2-chloro-6-fluorophenyl)methyl]-1-({4-[(4-methylpyrazol-1-yl)methyl]phenyl}methyl)-3-(trifluoromethyl)pyrazole-4-carboxamide], the results for the half-inhibitory concentration (IC50) on Human plasma kallikrein and against Human KLK1 were 514 nM and > 10 µM, respectively.

Take `COc1ccc(CNC(=O)c2cn(Cc3ccc(Cn4cc(C)cn4)cc3)nc2C(F)(F)F)c(C(F)(F)F)c1` [Example 12, N-{[4-methoxy-2-(trifluoromethyl)phenyl]methyl}-1-({4-[(4-methylpyrazol-1-yl)methyl]phenyl}methyl)-3-(trifluoromethyl)pyrazole-4-carboxamide]: the half-maximal inhibitory concentration (IC50) was 746 nM on Human plasma kallikrein and > 10 µM on Human KLK1.

On to `Cc1cnn(Cc2ccc(Cn3cc(C(=O)NCc4c(F)cccc4F)c(C(F)(F)F)n3)cc2)c1` [Example 13, N-[(2,6-difluorophenyl)methyl]-1-({4-[(4-methylpyrazol-1-yl)methyl]phenyl}methyl)-3-(trifluoromethyl)pyrazole-4-carboxamide], for which the IC50 on Human plasma kallikrein was 439 nM; on Human KLK1 it was > 10 µM.

For the compound `COc1cc(F)c(CNC(=O)c2cn(Cc3ccc(Cn4cc(C)cn4)cc3)nc2C(F)(F)F)c(F)c1` [Example 11, N-[(2,6-difluoro-4-methoxyphenyl)methyl]-1-({4-[(4-methylpyrazol-1-yl)methyl]pheny}methyl)-3-(trifluoromethyl)pyrazole-4-carboxamide], the IC50 at Human plasma kallikrein worked out at 456 nM.

Consider `Cc1ccc(CNC(=O)c2cn(Cc3ccc(Cn4cc(C)cn4)cc3)nc2C(F)(F)F)c(C)c1` [Example 24, N-[(2,4-dimethylphenyl)methyl]-1-({4-[(4-methylpyrazol-1-yl)methyl]phenyl}methyl)-3-(trifluoromethyl)pyrazole-4-carboxamide], for which the IC50 at Human plasma kallikrein is 717 nM; against Human KLK1, > 10 µM.
